# From patent US9682085B2, “Anti-proprotein convertase subtilisin kexin type 9 (anti-PCSK9) compounds and methods of using the same in the treatment and/or prevention of cardiovascular diseases” (Shifa Biomedical Corporation, priority 2013, dated 2017)
# Legend:
# mice fed high fat diet = test: Test for efficacy in animal model (mice fed high fat diet); assay type: in vivo, mice (C57BL/6)
# Procedure: SBC-115,076, and SBC-110,034 were tested for their efficacy in male mice (C57BL/6 mice). Mice were housed as four animals per cage under climate-controlled conditions of temperature (20-24° C.), humidity (60-70%), and alternating 12 h light/dark cycles. One group was fed commercial chow diet (Prolab RMH 3000, PMI feeds, St. Louis, Mo.) to serve as a negative control, while the other four groups were fed high fat diet (TD.06414), which provides 60% of calories from fat. Water was provided ad libitum. Plasma was collected once weekly to monitor the level of LDL. After 4 weeks of feeding a high fat-diet, mice were randomly assigned to one of several groups such that the average LDL levels were equal among different groups. […] Blood samples (75 μl) were collected twice weekly after drug administration from the retro-orbital venous plexus via heparinized capillary tubes containing 2 USP units of ammonium heparin per tube (Carolina, Burlington, N.C.). Plasma were separated immediately by centrifugation (5,000×g) for 5 min at room temperature and then kept at −80° C. until assayed for lipid profile. Plasma cholesterol, LDL-C, HDL-C, and triglyceride levels are measured enzymatically. Additionally, the plasma levels of PCSK9 and chemokines/cytokines were measured for potential pleiotropic effects of PCSK9 inhibitors using ELISA and multiplex assays.
# PCSK9 = target: T1, PCSK9 (Homo sapiens, UniProt Q8NBP7); conditions: single injection, clinical trial; cited from earlier work
# T1 construct: host or cells: patients (endogenous circulating PCSK9)
# HepG2 cells = test: Uptake of Fluorescent Dil-LDL in HepG2 cells in situ; assay type: cell-based; conditions: various concentrations (FIG. 6)
# Procedure: The SBC compounds were validated for their ability to increase uptake of Fluorescent Dil-LDL in HepG2 cells.
# We also tested the ability of the PCSK9 compounds to enhance the uptake of Fluorescent Dil-LDL in HepG2 cells. Briefly, HepG2 cells were plated and allowed to grow overnight. Compounds were added to the cells followed by the addition of Fluorescent Dil-LDL. Cells were washed extensively, and the Fluorescent Di-LDL taken up by the cells were measured using the Synergy 2 plate reader (FIG. 6).
# [1] = second study, 40 mg/kg, after three weeks, P<0.01
# [2] = 8 mg/kg daily s.c., after two weeks, P<0.01 (FIG. 8)
# T1 sequence (Q8NBP7 153-692): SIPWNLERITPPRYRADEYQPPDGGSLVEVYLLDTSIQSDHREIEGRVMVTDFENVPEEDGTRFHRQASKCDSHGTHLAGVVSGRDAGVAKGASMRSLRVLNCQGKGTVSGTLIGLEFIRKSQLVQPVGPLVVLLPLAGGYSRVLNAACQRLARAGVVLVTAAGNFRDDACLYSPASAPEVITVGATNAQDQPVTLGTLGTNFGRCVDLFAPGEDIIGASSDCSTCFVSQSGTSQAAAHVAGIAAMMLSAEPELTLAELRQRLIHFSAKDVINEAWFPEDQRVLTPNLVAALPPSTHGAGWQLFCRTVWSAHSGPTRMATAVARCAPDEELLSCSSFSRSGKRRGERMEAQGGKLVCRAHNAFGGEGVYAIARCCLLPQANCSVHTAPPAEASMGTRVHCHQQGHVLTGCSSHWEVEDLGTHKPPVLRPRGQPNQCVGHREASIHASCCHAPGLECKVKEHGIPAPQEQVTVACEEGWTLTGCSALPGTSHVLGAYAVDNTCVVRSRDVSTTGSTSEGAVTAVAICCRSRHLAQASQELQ
molecule,measurement,setting,value
"CC(C)c1c(C(=O)Nc2ccccc2)c(-c2ccccc2)c(-c2ccc(F)cc2)n1CC[C@@H](O)C[C@@H](O)CC(=O)O [Atorvastatin, reference compound]",mean reduction in total cholesterol levels relative to high fat diet animal levels,mice fed high fat diet; [1],27%
same,mean reduction toward return to regular diet cholesterol levels,mice fed high fat diet; [1],44%
REGN727: Regeneron/Sanofi fully-human PCSK9 monoclonal antibody,reduction of LDL levels,PCSK9,more than 60%
"Cc1cc(C(=O)C2=C(O)C(=O)N(CCCN3CCOCC3)C2c2ccncc2)ccc1OCc1ccccc1 (stereo not shown) [SBC-115,076]",uptake of Fluorescent Dil-LDL,HepG2 cells,increase in the Fluorescent Dil-LDL uptake using submicromolar concentrations
same,mean reduction in total cholesterol levels relative to high fat diet animal levels,mice fed high fat diet; [2],32%
same,mean reduction toward return to regular diet cholesterol levels,mice fed high fat diet; [2],50%
same,cholesterol levels in mice fed high fat diet,mice fed high fat diet; 8 mg/kg daily subcutaneously for two weeks,lowered cholesterol levels
